The subject of test [1] is MV-4-11. In words: Alamar Blue cell proliferation assay, MV-4-11. The following applies: Homo sapiens, MV4-11; Table 4. In kind it is cell-based. The method, then:
(§1) A representative cell-proliferation assay protocol using Alamar Blue dye (stored at 4° C., use 20 ul per well) is described hereafter.
(§2) a. Split and trypsinize cells.
(§3) b. Count cells using hemocytometer.
(§4) c. Plate 4,000-5,000 cells per well in 100 μl of medium and seed into a 96-well plate according to the following plate layout. Add cell culture medium only to wells B10 to B12. Wells B1 to B9 have cells but no compound added.
(§5) d. Add 100 μl of 2× drug dilution to each well in a concentration shown in the plate layout above. At the same time, add 100 μl of media into the control wells (wells B10 to B12). Total volume is 200 μl/well.
(§6) e. Incubate four (4) days at 37° C., 5% CO2 in a humidified incubator.
(§7) f. Add 20 μl Alamar Blue reagent to each well.
(§8) g. Incubate for four (4) hours at 37° C., 5% CO2 in a humidified incubator.
(§9) h. Record fluorescence at an excitation wavelength of 544 nm and emission wavelength of 590 nm using a microplate reader.
(§10) In the assays, cells are cultured with a test compound for approximately four days, the dye is then added to the cells and fluorescence of […] dye is detected after approximately four hours. Different types of cells can be utilized in the assays (e.g., HCT-116 human colorectal carcinoma cells, PC-3 human prostatic cancer cells, MDA-MB231 human breast cancer cells, K-562 human chronic myelogenous leukemia (CML) cells, MiaPaca human pancreatic carcinoma cells, MV-4 human acute myeloid leukemia cells, and BxPC3 human pancreatic adenocarcinoma cells).
In general terms: The colour change of resazurin is a common sign of viable cells or microbes.

In test [2] the target is recombinant PIM-1 (Homo sapiens, UniProt P11309). As to the kind of experiment: PIM-1 kinase assay. The following applies: for inhibition at 0.5 µM: 500 nM compound, read-out: PIM1: % inh 500 nM. The class given is biochemical. As for the experimental part:
The following procedure was used to assay the PIM-1 kinase activity of compounds of the invention. Other methods for assaying PIM-1 and other PIM kinases, as well as methods to assay for activity against various kinases known in the art.
In a final reaction volume of 50 ul, recombinant PIM-1 (1 ng) was incubated with 12 mM MOPS pH 7.0, 0.4 mM EDTA, glycerol 1%, brij 35 0.002%, 2-mercaptoethanol 0.02%, BSA 0.2 mg/ml, 100 uM KKRNRTLTK, 10 mM MgAcetate, 15 uM ATP, [γ-^33P-ATP] (specific activity approx. 500 cpm/pmol), DMSO 4% and test inhibitor compound at the required concentration. The reaction was initiated by the addition of the Magnesium ATP mixture. After 40 min incubation at 23° C., the reactions were quenched by the addition of 100 ul 0.75% Phosphoric acid, and the labeled peptide collected by filtration through a phosphocellulose filter plate. The plate was washed 4 times with 0.075% phosphoric acid (100 ul per well) and then, after the addition of scintillation fluid (20 ul per well), the counts were measured by a scintillation counter.

The subject of test [3] is PC-3 human prostatic cancer cells. In words: Alamar Blue cell proliferation assay, PC3. In kind it is cell-based. As for the experimental part: as §1, §2, §3, §4, §5, §6, §7, §8, §9, §10
For test [4], the system named is MiaPaca human pancreatic carcinoma cells. As to the kind of experiment: Alamar Blue cell proliferation assay, MiaPaCa. In kind it is cell-based. The following applies: MIA PaCa-2. The method, then: as §1, §2, §3, §4, §5, §6, §7, §8, §9, §10
The test system of test [5] is K-562 human chronic myelogenous leukemia (CML) cells. In words: Alamar Blue cell proliferation assay, K-562. The class given is cell-based. The following applies: K562, Table 4. As for the experimental part: as §1, §2, §3, §4, §5, §6, §7, §8, §9, §10
The target in test [6] is recombinant human PIM2 (Homo sapiens, UniProt Q9P1W9). As to the kind of experiment: PIM-2 kinase assay. The class given is biochemical. As for the experimental part:
Test compounds dissolved and diluted in DMSO (2 μl) were added to a reaction mixture comprising 10 μl of 5× Reaction Buffer (40 mM MOPS pH 7.0, 5 mM EDTA), 10 μl of recombinant human PIM2 solution (4 ng PIM-2 dissolved in dilution buffer (20 mM MOPS pH 7.0; EDTA 1 mM; 5% Glycerol; 0.01% Brij 35; […]; […] 2-mercaptoethanol; 1 mg/ml BSA)) and 8 ul of water. Reactions were initiated by the addition of 10 ul of ATP Solution ([…] (15 mM MgCl2; 75 uM ATP) 1% ([γ-33P]ATP: Stock 1 mCi/100 μl; 3000 Ci/mmol (Perkin Elmer)) and 10 ul of substrate peptide solution (RSRSSYPAGT, dissolved in water at a concentration of 1 mM), Reactions were maintained for 10 min at 30° C. The reactions were quenched with 100 ul of 0.75% Phosphoric acid, then transferred to and filtered through a Phosphocellulose filter plate (Millipore, MSPH-N6B-50). After washing each well 4 times with 0.75% Phosphoric acid, scintillation fluid (20 uL) was added to each well and the residual radioactivity was measured using a Wallac luminescence counter.

The target of test [7] is T1, recombinant human CK2 (Homo sapiens, UniProt P68400).
T1 construct: purchased Upstate
T1 sequence (P68400 whole entry): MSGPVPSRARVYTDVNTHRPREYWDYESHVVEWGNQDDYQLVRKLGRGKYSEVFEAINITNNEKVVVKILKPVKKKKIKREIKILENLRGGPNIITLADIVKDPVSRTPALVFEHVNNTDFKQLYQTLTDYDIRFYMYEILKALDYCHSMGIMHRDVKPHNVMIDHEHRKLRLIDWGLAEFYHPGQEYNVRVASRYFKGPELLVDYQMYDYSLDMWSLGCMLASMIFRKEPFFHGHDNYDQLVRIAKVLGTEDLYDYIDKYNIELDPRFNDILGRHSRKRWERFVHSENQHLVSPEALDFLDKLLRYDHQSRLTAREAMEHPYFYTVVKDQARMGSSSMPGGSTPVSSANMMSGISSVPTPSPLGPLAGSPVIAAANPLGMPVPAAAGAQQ
T1 sequence (P67870 whole entry partner): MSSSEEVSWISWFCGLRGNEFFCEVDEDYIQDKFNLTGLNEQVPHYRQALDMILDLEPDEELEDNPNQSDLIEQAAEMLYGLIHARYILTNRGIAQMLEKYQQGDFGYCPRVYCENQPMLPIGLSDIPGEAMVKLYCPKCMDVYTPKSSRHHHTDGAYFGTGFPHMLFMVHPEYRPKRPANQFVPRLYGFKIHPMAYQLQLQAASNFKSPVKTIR
In words: cell-free CK2 assay. The class given is biochemical. As for the experimental part:
Modulatory activity of compounds described herein was assessed in vitro in cell-free CK2 assays by the following method.
Test compounds in aqueous solution were added at a volume of 10 microliters, to a reaction mixture comprising 10 microliters Assay Dilution Buffer (ADB; 20 mM MOPS, pH 7.2, 25 mM beta-glycerolphosphate, 5 mM EGTA, 1 mM sodium orthovanadate and 1 mM dithiothreitol), 10 microliters of substrate peptide (RRRDDDSDDD, dissolved in ADB at a concentration of 1 mM), 10 microliters of recombinant human CK2 (25 ng dissolved in ADB; Upstate). Reactions were initiated by the addition of 10 microliters of ATP Solution (90% 75 mM MgCl2, 75 micromolar ATP dissolved in ADB; 10% [γ-^33P]ATP (stock 1 mCi/100 μl; 3000 Ci/mmol (Perkin Elmer) and maintained for 10 minutes at 30 degrees C. The reactions were quenched with 100 microliters of 0.75% phosphoric acid, then transferred to and filtered through a phosphocellulose filter plate (Millipore). After washing each well 5 times with 0.75% phosphoric acid, the plate was dried under vacuum for 5 min and, following the addition of 15 ul of scintilation fluid to each well, the residual radioactivity was measured using a Wallac luminescence counter.

[8] abbreviates: 15 μM ATP, read-out: PIM1: IC50 (15 μM ATP).

Structures are written as SMILES. Where two headings read alike, the source gives them in different places. Bounds are passed on as bounds.

recombinant PIM-1, sequence (P11309 whole entry): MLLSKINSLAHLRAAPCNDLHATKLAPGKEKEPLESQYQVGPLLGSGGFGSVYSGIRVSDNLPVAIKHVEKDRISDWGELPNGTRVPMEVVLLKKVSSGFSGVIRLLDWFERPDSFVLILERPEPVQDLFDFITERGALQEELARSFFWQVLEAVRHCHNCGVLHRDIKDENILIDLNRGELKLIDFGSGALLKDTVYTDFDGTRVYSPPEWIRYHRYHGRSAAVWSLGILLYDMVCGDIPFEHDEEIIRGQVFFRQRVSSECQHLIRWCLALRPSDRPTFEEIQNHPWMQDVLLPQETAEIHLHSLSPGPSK
recombinant human PIM2, sequence (Q9P1W9 whole entry): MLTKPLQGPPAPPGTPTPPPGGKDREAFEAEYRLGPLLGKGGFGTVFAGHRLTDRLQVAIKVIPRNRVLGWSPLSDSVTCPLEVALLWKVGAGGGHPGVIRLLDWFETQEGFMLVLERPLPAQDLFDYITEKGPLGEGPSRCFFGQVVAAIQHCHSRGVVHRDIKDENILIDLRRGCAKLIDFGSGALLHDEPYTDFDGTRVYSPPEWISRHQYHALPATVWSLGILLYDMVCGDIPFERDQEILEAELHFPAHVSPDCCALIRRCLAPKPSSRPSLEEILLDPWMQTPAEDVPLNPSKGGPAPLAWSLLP

Consider `N#Cc1ccc2c(c1)nc(NCCN1CCCC1)c1cccn12`, for which the IC50 in test [1] turned out to be 3 µM; in test [3] it was 9.65 µM; in test [4], 1.24 µM; in test [5], 5.52 µM. In addition, in test [2], the inhibition at 0.5 µM came to 10.3%.
Regarding `CN(c1cccc(Cl)c1)c1nc2cc(-c3nnn[nH]3)ccc2n2cccc12`, the IC50 in test [1], in test [3], in test [4] and in test [5] was above 10 µM each time. Further, in test [2], the inhibition at 0.5 µM came to 6.59%.
For `c1cc(-c2nnc[nH]2)c2nc(Nc3nccs3)c3cccn3c2c1`, the concentration for half-maximal inhibition (IC50) in test [2] (Table 5, read-out: PIM1 IC50) was below 5 µM; in test [6], below 5 µM; in test [7], below 5 µM.
On to `OCc1cccc2c1nc(Nc1ccccc1F)c1cccn12`, for which the IC50 in test [2] (Table 5, read-out: PIM1 IC50) is above 2.5 µM; in test [6], below 5 µM; in test [7], above 5 µM.
For `NC(=O)c1cccc2c1[nH]c(=O)c1cccn12`, in that order: above 2.5 µM, above 2.5 µM and above 5 µM.
For `Fc1ccc(Nc2nc3c(-c4nnc[nH]4)cccc3n3cccc23)c(Cl)c1`, in that order: below 0.1 µM, below 0.1 µM and below 1 µM.
For `CC(C)(C)OC(=O)OCc1cccc2c1nc(N(C(=O)OC(C)(C)C)c1ccccc1F)c1cccn12`, in that order: above 2.5 µM, above 2.5 µM and above 5 µM.
As for `Cc1ccccc1Nc1nc2cc(-c3nnn[nH]3)ccc2n2cccc12`, the IC50 is above 10 µM in test [1]; 0.676 µM in test [2] (setting [8]); above 10 µM in test [3]; above 10 µM in test [4]; above 10 µM in test [5]. For the same compound, the inhibition at 0.5 µM in test [2] was determined as 52.4%.
On to `N#Cc1cccc(Nc2nc3cc(C(=O)O)ccc3n3cccc23)c1`, for which the IC50 in test [1] was above 10 µM; in test [2] (setting [8]) it was 0.115 µM; in test [3], above 10 µM; in test [4], above 10 µM; in test [5], above 10 µM. The inhibition at 0.5 µM in test [2] was 92.3%.
`CN(C)CCNc1nc2c(-c3nnc[nH]3)cccc2n2cccc12`: the IC50 was above 2.5 µM in test [2] (Table 5, read-out: PIM1 IC50); above 2.5 µM in test [6]; above 5 µM in test [7].
As to `CCOC(=O)c1cccc2c1nc(Nc1ccccc1F)c1cccn12`, the IC50 in test [2] (Table 5, read-out: PIM1 IC50) was above 2.5 µM; in test [6], above 2.5 µM; in test [7], above 5 µM.
On to `O=C(O)c1cccc2c1nc(Nc1ccccc1F)c1cccn12`, for which the IC50 in test [2] (Table 5, read-out: PIM1 IC50) was below 1 µM; in test [6], below 1 µM; in test [7] it was below 1 µM.
As to `O=C(O)c1ccc2c(c1)nc(Nc1cccc(F)c1)c1cccn12`, the IC50 in test [1] is above 10 µM; in test [2] (setting [8]), 0.156 µM; in test [3] it was above 10 µM; in test [4], above 10 µM; in test [5], above 10 µM. In test [2], the inhibition at 0.5 µM was determined as 78.1%.
Regarding `FC(F)(F)CCNc1nc2c(-c3nnc[nH]3)cccc2n2cccc12`, the IC50 is below 0.1 µM in test [2] (Table 5, read-out: PIM1 IC50); below 1 µM in test [6]; below 5 µM in test [7].
On to `Clc1cccc(Nc2nc3cc(-c4nnn[nH]4)ccc3n3cccc23)c1`, for which the IC50 in test [1] was 4.98 µM; in test [2] (setting [8]), 0.15 µM; in test [3], above 10 µM; in test [4], 9.37 µM; in test [5], above 10 µM. In test [2], the inhibition at 0.5 µM turned out to be 77.4%.
Regarding `O=C(O)c1ccc2c(c1)nc(Nc1cccc(Cl)c1)c1cccn12`, the IC50 in test [1] was 2.93 µM; in test [2] (setting [8]), 0.095 µM; in test [3] it was above 10 µM; in test [4], 8.92 µM; in test [5], above 10 µM. Also, the inhibition at 0.5 µM in test [2] came out at 95.4%.
In the case of `O=C(O)c1ccc2c(c1)nc(NCCn1cccc1)c1cccn12`, the IC50 in test [1] was above 10 µM; in test [2] (setting [8]) it was 0.554 µM; in test [3], above 10 µM; in test [4], above 10 µM; in test [5], above 10 µM. Further, the inhibition at 0.5 µM in test [2] was determined as 50.1%.
Consider `CN(c1cccc(Cl)c1)c1nc2cc(C(=O)O)ccc2n2cccc12`, for which the IC50 in test [1], in test [3], in test [4] and in test [5] was above 10 µM throughout. Besides, in test [2], the inhibition at 0.5 µM came to 49.7%.
In the case of `O=c1[nH]c2c(-c3nnc[nH]3)cccc2n2cccc12`, the IC50 in test [2] (Table 5, read-out: PIM1 IC50) was above 2.5 µM; in test [6], above 2.5 µM; in test [7] it was below 5 µM.
`COc1cccc(Nc2nc3cc(C(=O)O)ccc3n3cccc23)c1`: the IC50 is above 10 µM in test [1]; 0.354 µM in test [2] (setting [8]); above 10 µM in test [3]; above 10 µM in test [4]; above 10 µM in test [5]. The inhibition at 0.5 µM in test [2] worked out at 79%.
As to `O=C(O)c1ccc2c(c1)nc(Nc1cc(F)cc(Cl)c1)c1cccn12`, the IC50 in test [1] was 8.55 µM; in test [2] (setting [8]) it was 0.119 µM; in test [3], above 10 µM; in test [4] it was above 10 µM; in test [5], above 10 µM. In addition, the inhibition at 0.5 µM in test [2] is 83.9%.
For `CCOC(=O)c1cccc2c1[nH]c(=O)c1cccn12`, the IC50 was above 2.5 µM in test [2] (Table 5, read-out: PIM1 IC50); above 2.5 µM in test [6]; above 5 µM in test [7].
Take `O=C(O)c1ccc2c(c1)nc(Nc1ccc3ncccc3c1)c1cccn12`: the IC50 is above 10 µM in test [1], 0.239 µM in test [2] (setting [8]), above 10 µM in test [4] and above 10 µM in test [5]. Further, the inhibition at 0.5 µM in test [2] was found to be 43.2%.
In the case of `NC(=O)c1cccc2c1nc(Nc1ccccc1Cl)c1cccn12`, the IC50 in test [2] (Table 5, read-out: PIM1 IC50) is below 0.1 µM; in test [6] it was below 1 µM; in test [7], below 1 µM.
For the compound `NC(=O)c1cc(F)cc(Nc2nc3cc(C(=O)O)ccc3n3cccc23)c1`, the IC50 in test [1] was above 10 µM; in test [2] (setting [8]), 0.229 µM; in test [4], above 10 µM; in test [5], above 10 µM. Moreover, the inhibition at 0.5 µM in test [2] was 69.3%.
Regarding `c1cc(-c2nnc[nH]2)c2nc(NCC3CC3)c3cccn3c2c1`, the IC50 in test [2] (Table 5, read-out: PIM1 IC50) was below 0.1 µM; in test [6], below 1 µM; in test [7] it was below 5 µM.
Turning to `c1cc(-c2nnc[nH]2)c2nc(NC3CC3)c3cccn3c2c1`, the IC50 in test [2] (Table 5, read-out: PIM1 IC50) was below 0.1 µM; in test [6] it was below 1 µM; in test [7] it was below 1 µM.

The term IC50 denotes the concentration at which inhibition is half-maximal.

The record behind these values is patent US20100298302A1, “NOVEL PROTEIN KINASE MODULATORS” (priority 2009, published 2010).
